Consider 48 molecules from patent publication US20120277209A1, “PYRAZINE COMPOUNDS AS PHOSPHODIESTERASE 10 INHIBITORS” (Amgen Inc., priority 2009, published 2012).

For orientation: IC50 means the concentration that inhibits the measured activity by half.

The target in the first assay is PDE10 (UniProt Q9Y233). The assay can be described thus: PDE10 enzyme inhibition, IMAP TR-FRET assay (MPDE10A7 Enzyme Activity and Inhibition). Conditions: IC50 class against PDE10; read-out: IC50. Format: biochemical. Put shortly: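 PDE10A enzyme or tissue homogenate preincubated with compounds 30 min at room temperature, then fluorescein-labelled cAMP or cGMP added for 60 min. IMAP binding reagent stop, TR-FRET read. Values are mean IC50s, grouped into five potency classes.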
In general terms: Time-resolved FRET reads energy transfer from a long-lived donor to a nearby acceptor.
Regarding `Fc1cc(-c2nccnc2Oc2ccc(Nc3nc4ccccc4s3)c(F)c2)ccn1` [Example 158, N-(2-fluoro-4-(3-(2-fluoropyridin-4-yl)pyrazin-2-yloxy)phenyl)benzo[d]thiazol-2-amine], the IC50 was 25 to 100 nM.
Consider `COC1CC=C(c2nccnc2Oc2ccc(C(=O)c3nc4ccccc4[nH]3)cc2)CC1` (stereo not drawn) [Example 187, 1H-Benzimidazol-2-yl(4-((3-(4-methoxy-1-cyclohexen-1-yl)-2-pyrazinyl)oxy)phenyl)methanone], for which the IC50 is less than 25 nM.
Take `COc1cccc2nc(Nc3ccc(Oc4nccnc4C4CCOCC4)cc3)[nH]c12` [Example 209, 7-methoxy-N-(4-(3-(tetrahydro-2H-pyran-4-yl)pyrazin-2-yloxy)phenyl)-1H-benzo[d]imidazol-2-amine]: the IC50 was less than 25 nM.
For the molecule `CC(=O)N1CCC(c2nccnc2Oc2ccc(Nc3nc4ccccc4s3)cc2)CC1` [Example 225, 1-(4-(3-(4-(BENZO[D]THIAZOL-2-YLAMINO)PHENOXY)PYRAZIN-2-YL)PIPERIDIN-1-YL)ETHANONE], the 50% inhibitory concentration (IC50) was less than 25 nM.
In the case of `O=C(c1ccc(Oc2nccnc2Cl)cc1)c1nc2ccccc2[nH]1` [Example 3, (1H-BENZO[D]IMIDAZOL-2-YL)(4-(3-CHLOROPYRAZIN-2-YLOXY)PHENYL)METHANONE], the IC50 is 1000 to 5000 nM.
Regarding `Fc1ccc2sc(Nc3ccc(Oc4nccnc4C4CCOCC4)cc3)nc2c1` [Example 218, 5-fluoro-N-(4-(3-(tetrahydro-2H-pyran-4-yl)pyrazin-2-yloxy)phenyl)benzo[d]thiazol-2-amine], the IC50 was less than 25 nM.
The same measure, in the same setting: in the case of `O=C(c1ccc(Oc2nccnc2C2=CCC(F)(F)CC2)cc1)c1nc2ccccc2[nH]1` [Example 199, (1H-benzo[d]imidazol-2-yl)(4-(3-(4,4-difluorocyclohex-1-enyl)pyrazin-2-yloxy)phenyl)methanone] it was less than 25 nM; in that of `CC#CCOc1nccnc1Oc1ccc(C(=O)c2nc3ccccc3[nH]2)cc1` [Example 169, (1H-benzo[d]imidazol-2-yl)(4-(3-(but-2-ynyloxy)pyrazin-2-yloxy)phenyl)methanone], 100 to 250 nM; in that of `COc1cnccc1-c1nccnc1Oc1ccc(Nc2nc3ccccc3s2)cc1` [Example 149, N-(4-(3-(3-methoxypyridin-4-yl)pyrazin-2-yloxy)phenyl)benzo[d]thiazol-2-amine], less than 25 nM.
`CC(Cc1ccccn1)NC(=O)c1nccnc1Oc1ccc(C(=O)c2nc3ccccc3[nH]2)cc1` (racemic) [Example 259, (rac)-3-(4-(1H-benzo[d]imidazole-2-carbonyl)phenoxy)-N-(1-(pyridin-2-yl)propan-2-yl)pyrazine-2-carboxamide]: the IC50 is less than 25 nM.
In the case of `CC(=O)OCC(=O)N1CCC(c2nccnc2Oc2ccc(C(=O)c3nc4ccccc4[nH]3)cc2)CC1` [Example 244, 2-(4-(3-(4-(1H-benzo[d]imidazole-2-carbonyl)phenoxy)pyrazin-2-yl)piperidin-1-yl)-2-oxoethyl acetate], the IC50 was less than 25 nM.
On to `COC1CCN(c2nccnc2Oc2ccc(Nc3nc4ccccc4s3)cc2)CC1` [Example 92, N-(4-(3-(4-methoxypiperidin-1-yl)pyrazin-2-yloxy)phenyl)-benzo[d]thiazol-2-amine], for which the IC50 was less than 25 nM.
“1H-BENZIMIDAZOL-2-YL(4-((3-(CIS-4-HYDROXYCYCLOHEXYL)-2-PYRAZINYL)OXY)PHENYL)METHANONE AND 1H-BENZIMIDAZOL-2-YL(4-((3-(TRANS-4-HYDROXYCYCLOHEXYL)-2-PYRAZINYL)OXY)PHENYL)METHANONE [Example 188]”: the IC50 was less than 25 nM.
For the molecule `COC(=O)N1CCC(c2nccnc2Oc2ccc(C(=O)c3nc4ccccc4[nH]3)cc2)CC1` [Example 227, methyl 4-(3-(4-(1H-benzo[d]imidazole-2-carbonyl)phenoxy)pyrazin-2-yl)piperidine-1-carboxylate], the IC50 is less than 25 nM.
Consider `c1ccc2[nH]c(Nc3ccc(Oc4nccnc4C4CCOCC4)cc3)nc2c1` [Example 207, N-(4-(3-(tetrahydro-2H-pyran-4-yl)pyrazin-2-yloxy)phenyl)-1H-benzo[d]imidazol-2-amine], for which the IC50 was less than 25 nM.
The same measure, in the same setting: in the case of `CC(=O)N1CCCC(c2nccnc2Oc2ccc(C(=O)c3nc4ccccc4[nH]3)cc2)C1` (racemic) [Example 251, 1-(3-(3-(4-(1H-benzo[d]imidazole-2-carbonyl)phenoxy)pyrazin-2-yl)piperidin-1-yl)ethanone 2,2,2-trifluoroacetate] it was less than 25 nM; in that of `COc1ccncc1-c1nccnc1Oc1ccc(C(=O)c2nc3ccccc3[nH]2)cc1` [Example 112, (1H-benzo[d]imidazol-2-yl)(4-(3-(4-methoxypyridin-3-yl)pyrazin-2-yloxy)phenyl)methanone], 25 to 100 nM.
Take `O=C(c1ccc(Oc2nccnc2-c2ccc[nH]c2=O)cc1)c1nc2ccccc2[nH]1` [Example 106, 3-(3-(4-(1H-BENZO[D]IMIDAZOLE-2-CARBONYL)PHENOXY)PYRAZIN-2-YL)PYRIDIN-2(1H)-ONE]: the half-inhibitory concentration (IC50) is less than 25 nM.
Same read-out and setting: under `COc1cccc(-c2nccnc2Oc2ccc(Nc3nc4ccccc4s3)cc2)c1` [Example 150, N-(4-(3-(3-methoxyphenyl)pyrazin-2-yloxy)phenyl)benzo[d]thiazol-2-amine] stands 25 to 100 nM; under `CCCOc1nccnc1Oc1ccc(C(=O)c2nc3ccccc3[nH]2)cc1` [Example 180, (1H-benzo[d]imidazol-2-yl)(4-(3-propoxypyrazin-2-yloxy)phenyl)methanone], 1000 to 5000 nM.
With `COc1cncc(-c2nccnc2Oc2ccc(Nc3nc4ccccc4s3)cc2)c1` [Example 156, N-(4-(3-(5-methoxypyridin-3-yl)pyrazin-2-yloxy)phenyl)benzo[d]thiazol-2-amine], the IC50 was 25 to 100 nM.
In the case of `CC(=O)N1CCC(c2nccnc2Oc2ccc(Nc3nc4ccccc4s3)cc2F)CC1` [Example 248, 1-(4-(3-(4-(benzo[d]thiazol-2-ylamino)-2-fluorophenoxy)pyrazin-2-yl)piperidin-1-yl)ethanone], the IC50 is less than 25 nM.

Still in this assay, the particulars now being: PDE10 enzyme inhibition; average IC50 data for each compound; read-out: Average IC50.
For the molecule `O=C(c1ccc(Oc2nccnc2[C@H]2CC[C@@H](O)CC2)cc1)c1nc2ccccc2[nH]1` [drawing 797], the IC50 stood at 1.04 nM.
Still for that read-out and setting: in the case of `c1ccc2sc(Nc3ccc(Oc4nccnc4C4CCCC4)cc3)nc2c1` [drawing 948] it was 4.96 nM; in that of `C[C@]1(O)CC[C@H](c2nccnc2Oc2ccc(C(=O)c3nc4ccccc4[nH]3)cc2)CC1` [drawing 922], 0.748 nM; in that of `c1ccc2sc(Nc3ccc(Oc4nccnc4N4CCC5(CC4)OCCO5)cc3)nc2c1` [drawing 784], 67.8 nM.
Turning to `CC1(C)C=C(c2nccnc2Oc2ccc(C(=O)c3nc4ccccc4[nH]3)cc2)C(=O)CC1` [drawing 916], the IC50 came to 166 nM.
For `Cn1c(C(=O)c2ccc(Oc3nccnc3C3CCOCC3)cc2)nc2ccccc21` [drawing 874], the IC50 stood at 1.31 nM.
As to `COC(=O)C1(c2nccnc2Oc2ccc(Nc3nc4ccccc4s3)cc2)CCN(C(=O)OC(C)(C)C)CC1` [drawing 869], the IC50 is 245 nM.
For the molecule `Fc1cccc2nc(Nc3ccc(Oc4cnccn4)cc3)sc12` [drawing 880], the IC50 is 803 nM.
Consider `O=C(c1ccc(Oc2nccnc2N2CC[C@@H](O)C2)cc1)c1nc2ccccc2[nH]1` (stereo in doubt), for which the IC50 amounted to 7.6 nM.
The same measure, in the same setting: under `CC1(O)CCN(c2nccnc2Oc2ccc(Nc3nc4ccccc4s3)cc2)CC1` [drawing 742] stands 8.08 nM; under `Cc1ccc(-c2nccnc2Oc2ccc(Nc3nc4ccccc4s3)cc2)cn1` [drawing 764], 11.3 nM; under `Cc1ncccc1-c1nccnc1Oc1ccc(C(=O)c2nc3ccccc3[nH]2)cc1` [drawing 947], 2.07 nM.
As for `COCC1CCN(c2nccnc2Oc2ccc(Nc3nc4ccccc4s3)cc2)CC1` [drawing 741], the IC50 turned out to be 39.5 nM.
Take `O=C(c1ccc(Oc2nccnc2-c2cccnc2F)cc1)c1nc2ccccc2[nH]1`: the IC50 was determined as 3.53 nM.
Same read-out and setting: under `CCOC(=O)C1CCN(c2nccnc2Oc2ccc(C(=O)c3nc4ccccc4[nH]3)cc2)CC1` stands 5.19 nM; under `C[C@@H]1CN(c2nccnc2Oc2ccc(C(=O)c3nc4ccccc4[nH]3)cc2)CC(=O)N1` (stereo in doubt), 2.57 nM; under `COc1ccccc1-c1nccnc1Oc1ccc(C(=O)c2nc3ccccc3[nH]2)cc1` [drawing 944], 2.9 nM.
For `CN(C)CC(=O)N1CCC(c2nccnc2Oc2ccc(Nc3nc4ccccc4s3)cc2)CC1` [drawing 996], the 50% inhibitory concentration (IC50) was 0.705 nM.
Consider `C[C@H](F)C(=O)N1CCC(c2nccnc2Oc2ccc(Nc3nc4ccccc4s3)cc2)CC1` (stereo in doubt), for which the IC50 came out at 0.178 nM.
As for `O=C(c1ccc(Oc2nccnc2[C@H]2CC[C@H](O)CC2)cc1)c1nc2ccccc2[nH]1`, the IC50 came out at 0.426 nM.
Turning to `COC(=O)[C@H]1CCN(c2nccnc2Oc2ccc(Nc3nc4ccccc4s3)cc2)C1` (stereo in doubt), the concentration for half-maximal inhibition (IC50) came out at 23 nM.
For the molecule `COc1cccc2nc(Nc3ccc(Oc4nccnc4C4CCOCC4)cc3)[nH]c12` [drawing 941], the IC50 came to 0.186 nM.
Still for that read-out and setting: in the case of `COCC(=O)N1CCC(c2nccnc2Oc2ccc(C(=O)c3nc4ccccc4[nH]3)cc2)CC1` [drawing 945] it was 0.0365 nM.

The assay is the same for the next values; noted with them: PDE10 enzyme inhibition; chiral compounds separated from racemic mixtures; read-out: IC50.
Consider `C[C@H](F)C(=O)N1CCC(c2nccnc2Oc2ccc(C(=O)c3nc4ccccc4[nH]3)cc2)CC1` [Example 278, (S)-1-(4-(3-(4-(1H-benzo[d]imidazole-2-carbonyl)phenoxy)pyrazin-2-yl)piperidin-1-yl)-2-fluoropropan-1-one], for which the IC50 is less than 25 nM.
The same measure, in the same setting: in the case of `O[C@H]1CCC[C@@H](c2nccnc2Oc2ccc(Nc3nc4ccccc4s3)cc2)C1` [Example 271, (1S,3R)-3-(3-(4-(benzo[d]thiazol-2-ylamino)phenoxy)pyrazin-2-yl)cyclohexanol] it was less than 25 nM; in that of `O[C@@H]1CCC[C@H](c2nccnc2Oc2ccc(Nc3nc4ccccc4s3)cc2)C1` [Example 272, (1R,3S)-3-(3-(4-(benzo[d]thiazol-2-ylamino)phenoxy)pyrazin-2-yl)cyclohexanol], less than 25 nM.
